# Test results as given in patent US20210163357A1, “Composition comprising at least one microorganism and use thereof” (Evonik Operations GmbH, priority 2018, published 2021).
# What was measured:
# Assay type in all cases: cell-based
# [1] = system: Bacillus subtilis DSM 32315; assay: Compatibility of spores with additives on agar plates; settings: neopentyl glycol 7 g/L, Protectosil WS405 20 g/L
# Procedure: For spores of the strain Bacillus subtilis DSM 32315 compatibility with neopentyl glycol (7 g/L) and Protectosil® WS405 (20 g/L) was investigated on agar plates. A mixture of 3 g of meat extract, 5 g of peptone from casein and 1000 mL of distilled water adjusted to pH 7 using HCl/NaOH was used as medium.
# [2] = system: Bacillus pseudofirmus (DSM 8715); assay: Compatibility of microorganisms with hydrophobizing agent and shrinkage reducer, liquid culture, turbidity; settings: WS405 5, 20 or 30 g/L; neopentyl glycol 0.7, 7 or 14 g/L; 4 days, 30° C.
# Procedure: (§1) The strains Bacillus subtilis (DSM 10) and Bacillus pseudofirmus (DSM 8715) were investigated for compatibility with hydrophobizing agents and shrinkage reducers.
# (§2) A mixture of 3 g of meat extract, 5 g of peptone from casein and 1000 mL of distilled water adjusted to pH 7 using HCl/NaOH for Bacillus subtilis (DSM 10) and adjusted to pH 7 using Na sesquicarbonate for Bacillus pseudofirmus (DSM 8715) was used as the medium.
# (§3) A pre-culture was initially produced for each of the two strains: To this end, an inoculation dose of the spores was in each case placed into a culture tube with 8 mL of the respective medium and left overnight in a laboratory shaker at 30° C. and 200 revolutions per minute. Furthermore, aqueous stock solutions respectively having a concentration of Protectosil® WS405 (hydrophobizing agent) of 500 g/L and a concentration of neopentyl glycol (shrinkage reducer) of 280 g/L were produced.
# (§4) For the main cultures two 6-well spot plates were each filled with 8 mL of medium. Then, 10 μL of the first pre-culture were added to each well of the first plate and 10 μL of the second pre-culture were added to each well of the second plate. […]
# [3] = system: Bacillus subtilis (DSM 10); assay: as above; settings: WS405 5, 20 or 30 g/L; neopentyl glycol 0.7, 7 or 14 g/L; 4 days, 30° C.
# Procedure: as §1, §2, §3, §4
smiles,measurement,setting,value
CC(C)(CO)CO [neopentyl glycol],formation of colonies in presence of additive,[1],Formation of colonies was observed in all cases
same,growth of microorganism in presence of additive (turbidity),[2],growth of neither organism was impaired
same,growth of microorganism in presence of additive (turbidity),[3],growth of neither organism was impaired
